Assay results from US20110269130A1, “Antibiotice Susceptibility Profiling Methods” (priority 2008, published 2011).

What was measured:
[1] = test system: S. aureus POS 3663 (MRSA); assay: PNA-FISH antibiotic susceptibility test, MRSA; format: cell-based; conditions: OX at concentrations as high as 8 μg/mL, 6 hr incubation in Phoenix AST broth, 10^5 CFU/ml, PNA-FISH fluorescence imaging
Method: (§1) S. aureus ATCC 29213 and S. aureus POS 3663 cultures with a concentration of 10^5CFU/ml were divided into six 400 μl subsamples and incubated with or without OX antibiotic for 0 or 6 hours in Phoenix AST broth as indicated in the following table.
(§2) Each subsample was placed into separate 1.5 mL microcentrifuge tubes following incubation. The tubes were centrifuged at 5000 rpm for 3 minutes and the supernatants were discarded. The bacteria were resuspended in […] of 80% ethanol and incubated for 5 minutes at room temperature and then centrifuged at 5000 rpm for 3 minutes. The supernatants were discarded and the bacteria were resuspended in one drop (approximately 25 μL) of the S. aureus-specific PNA-probe solution from the PNA FISH Kit and incubated for 1.5 hours at 55° C. After hybridization, 500 μL of the washing solution from the PNA FISH Kit was added and the tubes were incubated at 55° C. for 30 minutes. The tubes were centrifuged 10,000 rpm for 3 minutes and the supernatants were discarded. The bacterial pellets were resuspended in 150 μL PBS, and 40 μL of each subsample was transferred onto a 0.2 μm pore-size polycarbonate membrane using a flow-through device. The membrane was then transferred to a glass slide and covered with a cover slip. The membrane was then imaged using a fluorescence microscope.

[2] = test system: S. aureus ATCC 29213 (wild type); assay: PNA-FISH antibiotic susceptibility test, wild type S. aureus; format: cell-based; conditions: OX 2 μg/mL and higher (2, 4, 8 μg), 6 hr incubation in Phoenix AST broth, 10^5 CFU/ml, PNA-FISH fluorescence imaging
Method: as §1, §2

Question: For `Cc1onc(-c2ccccc2)c1C(=O)N[C@@H]1C(=O)N2[C@@H]1SC(C)(C)[C@@H]2C(=O)O` [oxacillin], which “effect of oxacillin (OX) on the growth of resistant S. aureus POS 3663” value [1] is on record?
Answer: had no effect on the growth

Question: And the “effect of oxacillin (OX) on the growth of resistant S. aureus POS 3663” value ([1]; listed as OX)?
Answer: continues to grow

Question: What about the “effect of oxacillin (OX) on the growth of wild type S. aureus ATCC 29213” value [2] of the same compound?
Answer: killed the bacteria

Question: What about the “effect of oxacillin (OX) on the growth of wild type S. aureus ATCC 29213” value ([2]; listed as OX) of the same compound?
Answer: most of the wild type S. aureus were killed
